# Reference: US20230146455A1, “TREATMENT OF INFLAMMATORY DISEASES WITH PEPTIDES AND PHARMACEUTICAL COMPOSITIONS” (Yuyu Pharma, Inc., priority 2020, published 2023)
# “And” between values parts separate entries of the source, which are not always exact repeats. Equal values may be shown once. Where a SMILES comes first, the peptide text is derived from it. [ ]: non-standard residue; d: D form. Hyp = O=C(O)[C@@H]1C[C@@H](O)CN1
# Test system: VEGF-A
# Experiment: Example 9 Luminex, LPS hPBMCs: VEGF-A
# Format: cell-based, human
# Conditions: for conc/live cell / Concentration: Bead VEGF-A; for Concentration: dilution 2.0
# Method: Treatment Human PBMCs were pretreated with YY-101, YDE-011 and YDE-043 or reference compound; Xiidra® at various concentration (ranging from 1 nM to 100 uM) for 2 h before stimulation. An equal volume of 0.5% DMSO was used as a vehicle control. Then, the cells were treated with LPS at 5 ug/ml. The supernatants from treated cells were harvested at 24 h and placed in a 96 well for Luminex cytokine & chemokine profiling using a Luminex 200 multiplex assay (Luminex; R&D system, USA).
# The main study arm with triplicate wells per group in a 24-well plate: • 1. Blank • 2. PBMC: 0.5% DMSO • 3. PBMC+LPS (5 ug/ml) • 4. PBMC+YY-101 100 uM • 5. PBMC+YY-101 10 uM • 6. PBMC+YY-101 1 uM • 7. PBMC+YY-101 0.1 uM • 8. PBMC+YY-101 0.01 uM • 9. PBMC+LPS (5 ug/ml)+Xiidra®100 uM • 10. PBMC+LPS (5 ug/ml)+Xiidra® 10 uM • 11. PBMC+LPS (5 ug/ml)+Xiidra® 1 uM • 12. PBMC+LPS (5 ug/ml)+Xiidra®0.1 uM • 13. PBMC+LPS (5 ug/ml)+Xiidra®0.01 uM • 14. PBMC+LPS (5 ug/ml)+Xiidra®0.001 uM • 15. PBMC+LPS (5 ug/ml)+YY-101 100 uM • 16. PBMC+LPS (5 ug/ml)+YY-101 10 uM • 17. PBMC+LPS (5 ug/ml)+YY-101 1 uM • 18. PBMC+LPS (5 ug/ml)+YY-101 0.1 uM • 19. PBMC+LPS (5 ug/ml)+YY-101 0.01 uM • 20. PBMC+LPS (5 ug/ml)+YY-101 0.001 uM • 21. PBMC+LPS (5 ug/ml)+YDE-011 100 uM • 22. PBMC+LPS (5 ug/ml)+YDE-011 10 uM • 23. PBMC+LPS (5 ug/ml)+YDE-011 1 uM • 24. PBMC+LPS (5 ug/ml)+YDE-011 0.1 uM • 25. PBMC+LPS (5 ug/ml)+YDE-011 0.01 uM • 26. PBMC+LPS (5 ug/ml)+YDE-011 0.001 uM • 27. PBMC+LPS (5 ug/ml)+YDE-043 100 uM • 28. PBMC+LPS (5 ug/ml)+YDE-043 10 uM • 29. PBMC+LPS (5 ug/ml)+YDE-043 1 uM • 30. PBMC+LPS (5 ug/ml)+YDE-043 0.1 uM • 31. PBMC+LPS (5 ug/ml)+YDE-043 0.01 uM • 32. PBMC+LPS (5 ug/ml)+YDE-043 0.001 uM
# Multiplex assay was used to measure 30 cytokines and chemokines. The 1:2, 1:10 and 1:200 diluted cell supernatant and serial dilution of the standard were dispensed into a 96 well plate at 50 ul/well. Then, the pre-mixed cocktail of antibody-coated magnetic beads was dispensed at 50 ul/well and incubated at room temperature for 2 h in a horizontal orbital microplate shaker at 800±500 rpm. The beads were washed using a magnetic device to prevent loss. The biotin-antibody was dispensed in 50 ul of each well and incubated at room temperature for 1 h in a shaker at 800±500 rpm. After washing, streptavidin-PE was added at 50 ul/well and incubated at room temperature for 30 min in a shaker under the same conditions. Finally, after washing, wash buffer (100 ul/well) was added to the plate and incubated in a shaker for 2 min. The Luminex™ 200 setting were set according to the manufacturer's protocol. The data was calculated with a standard five-parameter logistic nonlinear regression analysis of the data (xPonent software 4.2, USA). The levels of cytokine/chemokine are normalized to the live cell counts (1×10^5 cells/mL) and presented as concentrations per mL (pg/mL or ng/mL).
# [1] = PBMC + LPS(5 ug/ml) + test article 1 uM, Mean
# [2] = PBMC + LPS(5 ug/ml) + test article 1 uM, single replicates
# [3] = PBMC + LPS(5 ug/ml) + test article 10 uM, Mean
# [4] = PBMC + LPS(5 ug/ml) + test article 10 uM, single replicates
# [5] = PBMC + LPS(5 ug/ml) + test article 0.001 uM, Mean
# [6] = PBMC + LPS(5 ug/ml) + test article 0.001 uM, single replicates
# [7] = PBMC + LPS(5 ug/ml) + test article 0.01 uM, Mean
# [8] = PBMC + LPS(5 ug/ml) + test article 0.01 uM, single replicates
# [9] = PBMC + LPS(5 ug/ml) + test article 0.1 uM, Mean
# [10] = PBMC + LPS(5 ug/ml) + test article 0.1 uM, single replicates
smiles,measurement,setting,value
CC(C)C[C@H](NC(=O)CNC(=O)[C@H](CC(C)C)NC(=O)[C@H](CCC(N)=O)NC(=O)CNC(=O)[C@@H]1C[C@@H](O)CN1)C(=O)N[C@@H](C)C(=O)NCC(=O)N1CCC[C@H]1C(=O)N[C@@H](CCCCN)C(=O)O [YDE-011] (H-[Hyp]GQLGLAGPK-OH),conc/live cell,[1],0.3 pg/10^5
same,Concentration,[1],2.8 pg/mL
same,Concentration,[2],0.6 pg/mL
same,conc/live cell,[2],0.0 pg/10^5 and 0.1 pg/10^5
same,conc/live cell,[3],0.3 pg/10^5
same,Concentration,[3],2.1 pg/mL
same,Concentration,[4],3.6 pg/mL and 0.6 pg/mL
same,conc/live cell,[4],0.7 pg/10^5 and 0.0 pg/10^5 and 0.1 pg/10^5
same,conc/live cell,"PBMC + LPS(5 ug/ml) + test article 100 uM, Mean",0.0 pg/10^5
same,conc/live cell,"PBMC + LPS(5 ug/ml) + test article 100 uM, single replicates",0.0 pg/10^5
same,"Concentration, Bead name: VEGF-A",[5],4.3 pg/mL
same,"MFI, Bead name: VEGF-A",[5],−0.4
same,"conc/live cell, Bead name: VEGF-A",[5],0.8 pg/10^5
same,"Concentration, Bead name: VEGF-A",[6],6.1 pg/ml (2×) and 0.6 pg/ml
same,"MFI, Bead name: VEGF-A",[6],0.3 (2×) and −1.8
same,"conc/live cell, Bead name: VEGF-A",[6],1.4 pg/10^5 and 0.1 pg/10^5 and 1.1 pg/10^5
same,"Concentration, Bead name: VEGF-A",[7],2.8 pg/mL
same,"MFI, Bead name: VEGF-A",[7],−1.6
same,"conc/live cell, Bead name: VEGF-A",[7],0.3 pg/10^5
same,"Concentration, Bead name: VEGF-A",[8],4.9 pg/mL and 0.6 pg/mL
same,"MFI, Bead name: VEGF-A",[8],−0.3 and −2.8 and −1.8
same,"conc/live cell, Bead name: VEGF-A",[8],0.8 pg/10^5 and 0.0 pg/10^5 and 0.1 pg/10^5
same,"Concentration, Bead name: VEGF-A",[9],0.6 pg/mL
same,"MFI, Bead name: VEGF-A",[9],−2.1
same,"conc/live cell, Bead name: VEGF-A",[9],0.1 pg/10^5
same,"Concentration, Bead name: VEGF-A",[10],0.6 pg/mL
same,"MFI, Bead name: VEGF-A",[10],−1.8 (2×) and −2.8
same,"conc/live cell, Bead name: VEGF-A",[10],0.1 pg/10^5 (2×) and 0.0 pg/10^5
same,"Concentration, Bead name: VEGF-A",[2],4.9 pg/mL
same,"MFI, Bead name: VEGF-A",[2],−0.3
same,"conc/live cell, Bead name: VEGF-A",[2],0.9 pg/10^5
